Experimental findings from paper PMC7408547, “Bivalent Inhibitor with Selectivity for Trimeric MMP-9 Amplifies Neutrophil Chemotaxis and Enables Functional Studies on MMP-9 Proteoforms” (Cells, 2020) are described below.

The structures appear in SMILES notation. Read-outs that look alike come from different tables or passages of the source.

Holding throughout (format): biochemical
For one assay, the target named is T1, MMP-14/MT1-MMP (Homo sapiens, UniProt P50281).
T1 construct: purchased R & D systems; host or cells: NS0 cells
The assay can be described thus: MMP-14 OmniMMP peptide assay. The protocol:
Compounds 5 and 7 were synthesized as previously reported. Full-length human proMMP-9 was produced by recombinant expression in Sf9 insect cells and purified by gelatin-Sepharose chromatography as previously described. Stable full-length proMMP-9 monomers and trimers were separated by glycerol gradient ultracentrifugation as previously described. ProMMP-9 mixture and the separated monomers and trimers were activated by incubation with the catalytic domain of MMP-3 (cat. No. 444217, Merck Millipore, Darmstadt, Germany) as previously described. Activation of proMMP-9 was confirmed by a band shift of ±10 kDa, corresponding to the removal of the auto-inhibitory propeptide domain and by detection of gelatinolytic activity with a previously described gelatin degradation assay. MMP-9 monomers and trimers purified from human neutrophils were purchased (Cat. No. 444,231 and 444232, Sigma-Aldrich, St. Louis, MO, USA). Examples of sample purities and activations can be found in Supplementary Figure S1. Recombinant human proMMP-2 (CHO cell-derived), proMMP-3 (NS0 cell-derived), proMMP-7 (NS0 cell-derived) and proMMP-8 (NS0 cell-derived) were purchased from R & D systems (Minneapolis, MN, USA), dissolved in assay buffer (150 mM NaCl, 5 mM CaCl2, 0.01% Tween-20, 50 mM Tris, pH 7.4) to a concentration of 100 µg/mL and activated by incubation with 1 mM p-aminophenylmercuric acetate for, respectively, 1h, 6h, 2h and 1h. Activation of MMPs was confirmed by a band shift of approximately 10 kDa, corresponding to the removal of the propeptide domain. MMP-14/MT1-MMP (NS0 cell-derived) was also purchased from R & D systems (Minneapolis, MN, USA) and activated by incubation with recombinant human furin (cat. No. 1503-SE-010, R & D systems, Minneapolis, MO, USA) in activation buffer (50 mM Tris, 1 mM CaCl2, 0.5% Brij-35, pH 9) for 1.5 h and activity was tested in assay buffer (50 mM Tris, 3 mM CaCl2, 1 µM ZnCl2, pH 8.5). […] ADAM17/TACE (Sf 21 (baculovirus)-derived, R & D systems, Minneapolis, MO, USA) was diluted and evaluated in 25 mM Tris, 2.5 μM ZnCl2, 0.005% Brij-35, pH 9.0. All stocks of the compounds were evaluated for the presence of endotoxin using the EndoZyme II assay (Hyglos bioMérieux, Bernried am Starnberger See, Germany). […]
To determine the inhibition of gelatinolytic activity, we used a previously optimized gelatin degradation assay. […] Next, dye-quenched gelatin (DQ™-gelatin, Invitrogen, Carlsbad, CA, USA) was added at a final concentration of 2.5 µg/mL and the increase in fluorescence over time was measured with the CLARIOstar microplate reader (BMG Labtech, Ortenberg, Germany). […] Proteolytic activity was determined by linear regression of the fluorescence curve and the percentage inhibition was calculated through comparison with the positive control (no inhibitors). […]

Assay [1] addresses T2, recombinant human MMP-9 mixture (± 70% monomers and ± 30% trimers) (Homo sapiens, UniProt P14780).
T2 construct: made in house; host or cells: Sf9 insect cells
The experiment in a line: Fluorogenic peptide (OmniMMP) degradation assay, recombinant MMP-9 mixture. The note with it: recombinant human MMP-9 (Sf9) mix. The method, then:
Compounds 5 and 7 were synthesized as previously reported. Full-length human proMMP-9 was produced by recombinant expression in Sf9 insect cells and purified by gelatin-Sepharose chromatography as previously described. Stable full-length proMMP-9 monomers and trimers were separated by glycerol gradient ultracentrifugation as previously described. ProMMP-9 mixture and the separated monomers and trimers were activated by incubation with the catalytic domain of MMP-3 (cat. No. 444217, Merck Millipore, Darmstadt, Germany) as previously described. Activation of proMMP-9 was confirmed by a band shift of ±10 kDa, corresponding to the removal of the auto-inhibitory propeptide domain and by detection of gelatinolytic activity with a previously described gelatin degradation assay. MMP-9 monomers and trimers purified from human neutrophils were purchased (Cat. No. 444,231 and 444232, Sigma-Aldrich, St. Louis, MO, USA). Examples of sample purities and activations can be found in Supplementary Figure S1. Recombinant human proMMP-2 (CHO cell-derived), proMMP-3 (NS0 cell-derived), proMMP-7 (NS0 cell-derived) and proMMP-8 (NS0 cell-derived) were purchased from R & D systems (Minneapolis, MN, USA), dissolved in assay buffer (150 mM NaCl, 5 mM CaCl2, 0.01% Tween-20, 50 mM Tris, pH 7.4) to a concentration of 100 µg/mL and activated by incubation with 1 mM p-aminophenylmercuric acetate for, respectively, 1h, 6h, 2h and 1h. Activation of MMPs was confirmed by a band shift of approximately 10 kDa, corresponding to the removal of the propeptide domain. MMP-14/MT1-MMP (NS0 cell-derived) was also purchased from R & D systems (Minneapolis, MN, USA) and activated by incubation with recombinant human furin (cat. No. 1503-SE-010, R & D systems, Minneapolis, MO, USA) in activation buffer (50 mM Tris, 1 mM CaCl2, 0.5% Brij-35, pH 9) for 1.5 h and activity was tested in assay buffer (50 mM Tris, 3 mM CaCl2, 1 µM ZnCl2, pH 8.5). Active human neutrophil elastase (NE) was purchased from Abcam (Cambridge, UK) and for activity assays of NE the assay buffer was replaced by 200 mM Tris, pH 8.8. ADAM17/TACE (Sf 21 (baculovirus)-derived, R & D systems, Minneapolis, MO, USA) was diluted and evaluated in 25 mM Tris, 2.5 μM ZnCl2, 0.005% Brij-35, pH 9.0. All stocks of the compounds were evaluated for the presence of endotoxin using the EndoZyme II assay (Hyglos bioMérieux, Bernried am Starnberger See, Germany). Endotoxin levels in all concentrated stocks (2.5 mg/mL) were below the accepted limit of 0.5 EU/mL.
To determine the inhibition of gelatinolytic activity, we used a previously optimized gelatin degradation assay. […] […] […] BML-P126-0001, Enzo Life Sciences, Farmingdale, NY, USA) was used at a final concentration of 2.5 µg/mL. For ADAM17 the fluorogenic peptide Mca-PLAQAV-Dpa-RSSSR-NH2 (ES003, R & D systems, Minneapolis, MO, USA) and for neutrophil elastase the fluorogenic substrate MeOSuc-AAPV-AMC (cat. no. 324740, Merck Millipore, Darmstadt, Germany) were used. Proteolytic activity was determined by linear regression of the fluorescence curve and the percentage inhibition was calculated through comparison with the positive control (no inhibitors). When testing supernatants from human neutrophils, the assay was performed in the presence of 20 µM neutrophil elastase inhibitor (Elastase Inhibitor IV, Calbiochem, Darmstadt, Germany).

Assay [2] deals with secretions of fMLF stimulated human granulocytes. The assay can be described thus: Gelatinolysis in secretions of fMLF stimulated human granulocytes. The note with it: in the presence of 20 µM neutrophil elastase inhibitor; for inhibition of metalloproteinase-derived gelatinolytic signal: highest dose of 100 µM. The protocol:
To determine the inhibition of gelatinolytic activity, we used a previously optimized gelatin degradation assay. Activated MMP-9, activated MMP-2, neutrophil elastase or supernatants of stimulated neutrophils, were incubated with different concentrations of inhibitors and incubated for 30 min at 37 °C. Next, dye-quenched gelatin (DQ™-gelatin, Invitrogen, Carlsbad, CA, USA) was added at a final concentration of 2.5 µg/mL and the increase in fluorescence over time was measured with the CLARIOstar microplate reader (BMG Labtech, Ortenberg, Germany). For other MMPs, the OmniMMP substrate peptide (Mca-PLGL-Dpa-AR-NH2, cat. no. BML-P126-0001, Enzo Life Sciences, Farmingdale, NY, USA) was used at a final concentration of 2.5 µg/mL. For ADAM17 the fluorogenic peptide Mca-PLAQAV-Dpa-RSSSR-NH2 (ES003, R & D systems, Minneapolis, MO, USA) and for neutrophil elastase the fluorogenic substrate MeOSuc-AAPV-AMC (cat. no. 324740, Merck Millipore, Darmstadt, Germany) were used. Proteolytic activity was determined by linear regression of the fluorescence curve and the percentage inhibition was calculated through comparison with the positive control (no inhibitors). When testing supernatants from human neutrophils, the assay was performed in the presence of 20 µM neutrophil elastase inhibitor (Elastase Inhibitor IV, Calbiochem, Darmstadt, Germany).
Neutrophils were isolated from fresh blood from healthy donors, via density gradient centrifugation as described. To obtain neutrophil degranulate, neutrophils were suspended in degranulation buffer (120 mM NaCl, 15 mM CaCl2, 20 mM Tris/HCl pH 7.5) at a concentration of 10^7 cells/mL and degranulation was induced by incubating neutrophils with N-formyl-methionyl-leucyl-phenylalanine (fMLF) (final concentration 0.5 µM) for 20 min at 37 °C as previously described. Next, the supernatant was collected by centrifugation. For fresh blood donations, all subjects gave written informed consent in accordance with the Declaration of Helsinki.

T2 sequence (P14780 107-707 limits assumed): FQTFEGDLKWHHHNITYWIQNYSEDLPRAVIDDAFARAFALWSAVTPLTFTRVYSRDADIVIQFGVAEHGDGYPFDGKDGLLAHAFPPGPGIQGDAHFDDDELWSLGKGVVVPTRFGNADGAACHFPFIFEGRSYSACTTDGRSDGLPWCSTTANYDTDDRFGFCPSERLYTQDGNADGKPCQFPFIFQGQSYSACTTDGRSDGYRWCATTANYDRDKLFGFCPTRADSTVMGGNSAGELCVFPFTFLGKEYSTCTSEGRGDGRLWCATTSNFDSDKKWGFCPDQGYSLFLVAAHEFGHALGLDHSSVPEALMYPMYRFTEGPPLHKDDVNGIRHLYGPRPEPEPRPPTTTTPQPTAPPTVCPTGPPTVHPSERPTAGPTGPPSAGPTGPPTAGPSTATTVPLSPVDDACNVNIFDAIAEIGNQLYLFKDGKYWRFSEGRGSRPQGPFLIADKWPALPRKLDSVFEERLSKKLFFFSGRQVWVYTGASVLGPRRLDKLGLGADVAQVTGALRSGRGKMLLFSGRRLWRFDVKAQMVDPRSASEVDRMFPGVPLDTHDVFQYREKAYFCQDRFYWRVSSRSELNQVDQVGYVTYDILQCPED

By IC50 is commonly meant the midpoint of a concentration-inhibition curve. A word on the IC25: it is the concentration needed for an effect of 25%. Usually IC75 stands for the concentration needed for an effect of 75%. Turning to `CC(C)[C@H](C(=O)O)N(CCNC(=O)c1cccc(C(=O)NCCN([C@@H](C(=O)O)C(C)C)S(=O)(=O)c2ccc(-c3ccccc3)cc2)c1)S(=O)(=O)c1ccc(-c2ccccc2)cc1` [Compound 7], the IC50 at MMP-14/MT1-MMP is > 1000 nM. On MMP-14/MT1-MMP (OmniMMP substrate peptide), this molecule returned an IC50 of 1080 nM. Besides, in assay [1], the IC25 was 1.4 nM, the IC50 stood at 15 nM and the IC75 is 169 nM. The “inhibition of metalloproteinase-derived gelatinolytic signal, first inhibition plateau” value in assay [2] (around a concentration of 1 µM) is reported as “approximately 30%”. The “inhibition of metalloproteinase-derived gelatinolytic signal” value in assay [2] was “almost complete inhibition”.

In the case of `CC(C)[C@H](C(=O)O)N(CCNC(=O)c1ccccc1)S(=O)(=O)c1ccc(-c2ccccc2)cc1` [Compound 5], the IC50 against MMP-14/MT1-MMP is > 1000 nM. Also, 14800 nM corresponded to half-maximal inhibition against MMP-14/MT1-MMP (OmniMMP substrate peptide) (IC50). In assay [1], the IC25 is 228 nM, the half-maximal inhibitory concentration (IC50) came out at 726 nM and the IC75 is on record as 2309 nM. Moreover, in assay [2], the “inhibition of metalloproteinase-derived gelatinolytic signal” value is given as “approximately 30%”.
